# Results from patent US12201610B2, “Compositions comprising aticaprant” (Janssen Pharmaceuticals, Inc., priority 2022, dated 2025).
# Read-outs that look alike come from different tables or passages of the source. Marks after values point to notes of the source that are not given here.
# Legend:
# [1] = system: subjects with MDD; assay: CGI-S total score (Example 6); assay type: in vivo, human; conditions: 10 mg; 59 subjects analyzed; 'at Treatment' (week not given)
# From the text: CGI-S is a scale that rates the severity of the subject's illness at the time of assessment, relative to the clinician's past experience with subjects who have the same diagnosis and improvement with treatment. CGI-S provides an overall clinician-determined summary measure of severity of subject's illness that considers all available information, including knowledge of subject's history, psychosocial circumstances, symptoms, behavior, and impact of symptoms on subject's ability to function. CGI-S evaluates severity of psychopathology on scale of 0 to 7. Subject is assessed on severity of mental illness at time of rating according to: 0=not assessed; 1=normal (not at all ill); 2=borderline mentally ill; 3=mildly ill; 4=moderately ill; 5=markedly ill; 6=severely ill; 7=among most extremely ill patients.
# iv. To investigate the effect of aticaprant on symptoms of depression using the Clinical Global Impression-Severity (CGI-S), the patient reported Symptoms of Major Depressive Disorder Scale (SMDDS) and the self-assessment of treatment experience (SATE). […]
# [2] = Phase 1 PK Part 2: relative bioavailability, dose proportionality, food effect of milled API tablet; assay type: in vivo, human
# Procedure: This is a Phase 1, open-label, single dose, multicenter, 4-part study in healthy adult participants.
# Potential participants will be screened from Day −28 to Day −2 to determine participants' eligibility for study participation. For Part 1, qualified participants will be admitted on Day −1 of each treatment period and will remain in-house for the total duration of the treatment (Day −1 until Day 5, with single-dose treatment on Day 1 and 96 hours of PK), whereas for Part 2, PK sampling will be done up to 120 hours (Day 6). Each dosed participant will have a safety follow-up on Day 10 to Day 14 after last dose of the study intervention.
# The Part 2 of the study involves determination of relative bioavailability for tablet (Formulation Concept 2, i.e., milled (microfine) aticaprant formulation; see Table 10) and capsule formulations (see Example 6, study design, for description of capsule formulation) and dose proportionality and food effect for tablet formulation (Formulation Concept 2) in healthy adult participants (FIG. 26). Part 2 will consist of Subpart 2A and Subpart 2B consisting of a total of 4 periods. […] Participants will be assigned to 1 of 6 treatment sequences (Table 55) and will be administered the 3 treatments in a 3-way crossover. The same 24 participants who complete Subpart 2A will be enrolled in Subpart 2B. Subpart 2B consists of a fourth period to evaluate the food effect of a single dose of 10 mg aticaprant administered as 1×10 mg oral tablet (Formulation Concept 2) under fed conditions (Treatment H; Tables 54 and 56). A preliminary PK analysis will be conducted at the end of the food effect part (Subpart 2B) for all the periods from Part 2 and will include the food effect data.
# For each individual participant, there will be a washout period of at least 7 days for Part 1 and at least 8 days for Part 2 between subsequent intakes of the study intervention. Day 1 of a treatment period (day of study intervention intake) is the first day of the washout period (also in between the study parts, if applicable).
# Participants will be fasting in Part 1A and Part 2A. Participants will have been fed in Parts 1B and 2B. For a fasted condition, participants will fast (nothing to cat or drink except noncarbonated water) overnight for at least 10 hours before and until 4 hours after study intervention administration during each fasted treatment period. Approximately, 4 hours post-dose and after the 4-hour PK sampling, a standard lunch will be served at the study-site. Intake of water is allowed until 2 hours before the intake of the study intervention. Thereafter, water intake is only allowed for study intervention intake and for breakfast, if applicable. Drinking of water is allowed ad libitum from approximately 2 hours after dosing. For a fed condition, participants will consume, after an overnight fast (at least 10 hours), a standardized high-fat breakfast within a 20-minute period. […] Study intervention will be administered approximately 30 minutes after the start of the breakfast.
# In Parts 1 and 2, plasma concentrations will be determined for aticaprant. Blood samples for determination of plasma concentrations of aticaprant will be collected predose and at the postdose time points starting on Day 1 as indicated in the Tables 57-58.
# The following plasma PK parameters of aticaprant will be determined. A noncompartmental model with extravascular input will be used for the pharmacokinetic analysis.
# Based on the individual concentration-time data, using the actual sampling times, the following PK parameters will be derived for aticaprant: […]
# [3] = Dose proportionality: Treatment G (5 mg milled API tablet normalized to 10 mg, Test)/Treatment F (10 mg, Reference), fasting
# [4] = Food effect: Treatment H (high-fat diet, Test)/Treatment F (fasted, Reference), 10 mg milled API tablet
# [5] = Relative BA: Treatment F (10 mg milled API tablet, Test)/Treatment E (2 × 5 mg capsule, Reference), fasting
# [6] = Treatment E: 2 × 5 mg oral capsule, fasting, mean
# [7] = Treatment F: 1 × 10 mg Formulation Concept 2 (milled API tablet), fasting, mean (SD)
# [8] = Treatment G (1 × 5 mg Formulation Concept 2, fasting), dose normalized to 10 mg, mean (SD)
# [9] = Treatment G: 1 × 5 mg Formulation Concept 2 (milled API tablet), fasting, mean
# [10] = Treatment H: 1 × 10 mg Formulation Concept 2 (milled API tablet), after high-fat breakfast, mean
structure (smiles),measurement,setting,value
"Cc1cc(C)cc(C2CCCN2Cc2ccc(Oc3ccc(C(N)=O)cc3F)cc2)c1 (centres unmarked) [aticaprant, 3-fluoro-4-4-2-(3,5-dimethylphenyl)pyrrolidin-1-yl-methylphenoxybenzamide]","Change from Treatment Baseline in CGI-S Total Score, Arithmetic Mean (SD)",[1],−0.92 ± 1.039 Scores on a scale
same,Geometric Mean Cmax,"[2]; Dose proportionality, completers, Treatment G (Test): 1 × 5 mg Formulation Concept 2, fasting, Dose Normalized to 10 mg",32.5 ng/mL
same,"Ratio of Geometric Means, AUClast",[2]; [3],104.15%
same,"Ratio of Geometric Means, AUC∞",[2]; [3],106.40%
same,"Ratio of Geometric Means, Cmax",[2]; [3],105.13%
same,"Ratio of Geometric Means, AUClast",[2]; [4],134.90%
same,"Ratio of Geometric Means, AUC∞",[2]; [4],135.55%
same,"Ratio of Geometric Means, Cmax",[2]; [4],107.30%
same,"Ratio of Geometric Means, AUClast",[2]; [5],94.31%
same,"Ratio of Geometric Means, AUC∞",[2]; [5],93.66%
same,"Ratio of Geometric Means, Cmax",[2]; [5],102.30%
same,"% AUC∞, ex",[2]; [6],5.02%
same,CL/F,[2]; [6],34.8 L/h
same,λz,[2]; [6],0.024 h⁻¹
same,"% AUC∞, ex",[2]; [7],5.50 (3.17) %
same,CL/F,[2]; [7],35.8 (12.1) L/h
same,Cmax,[2]; [7],32.4 (7.39) ng/mL
same,λz,[2]; [7],0.024 (0.007) 1/h
same,"AUClast, G Dose Normalized",[2]; [8],314 (160) h * ng/mL
same,"AUC∞, G Dose Normalized",[2]; [8],308 (74.1)^a h * ng/mL
same,"Cmax, G Dose Normalized",[2]; [8],34.7 (11.6) ng/mL
same,"% AUC∞, ex",[2]; [9],6.93%
same,CL/F,[2]; [9],34.7 L/h
same,λz,[2]; [9],0.030 h⁻¹
same,"% AUC∞, ex",[2]; [10],4.92%
same,CL/F,[2]; [10],27.0 L/h
same,Cmax,[2]; [10],34.0 ng/mL
same,λz,[2]; [10],0.025 h⁻¹
same,AUC(0-t),"[2]; human, plasma, oral, 5 mg, Dose proportionality, completers, Treatment G (Test): 1 × 5 mg Formulation Concept 2, fasting, Dose Normalized to 10 mg, read-out: Geometric Mean AUClast",285 ng·h/mL
same,AUC(0-inf),"[2]; human, plasma, oral, 5 mg, Dose proportionality, completers, Treatment G (Test): 1 × 5 mg Formulation Concept 2, fasting, Dose Normalized to 10 mg, read-out: Geometric Mean AUC∞",296 ng·h/mL
same,half-life,"[2]; human, plasma, oral, 5 mg, Treatment G: 1 × 5 mg Formulation Concept 2 (milled API tablet), fasting, mean",26.6 h
same,AUC(0-t),"[2]; human, plasma, oral, 5 mg, Treatment G: 1 × 5 mg Formulation Concept 2 (milled API tablet), fasting, mean, read-out: AUClast",157 ng·h/mL
same,AUC(0-inf),"[2]; human, plasma, oral, 5 mg, Treatment G: 1 × 5 mg Formulation Concept 2 (milled API tablet), fasting, mean, read-out: AUC∞",154 ng·h/mL
same,Cmax,"[2]; human, plasma, oral, 5 mg, Treatment G: 1 × 5 mg Formulation Concept 2 (milled API tablet), fasting, mean, read-out: Cmax",17.4 ng/mL
same,Tmax,"[2]; human, plasma, oral, 5 mg, Treatment G: 1 × 5 mg Formulation Concept 2 (milled API tablet), fasting, median",1 h
same,AUC(0-t),"[2]; human, plasma, oral, 10 mg, Dose proportionality, completers, Treatment F (Reference): 1 × 10 mg Formulation Concept 2, fasting, read-out: Geometric Mean AUClast",274 ng·h/mL
same,AUC(0-inf),"[2]; human, plasma, oral, 10 mg, Dose proportionality, completers, Treatment F (Reference): 1 × 10 mg Formulation Concept 2, fasting, read-out: Geometric Mean AUC∞",279 ng·h/mL
same,Cmax,"[2]; human, plasma, oral, 10 mg, Dose proportionality, completers, Treatment F (Reference): 1 × 10 mg Formulation Concept 2, fasting, read-out: Geometric Mean Cmax",30.9 ng/mL
same,AUC(0-t),"[2]; human, plasma, oral, 10 mg, Food effect, completers, Treatment F (Reference): 1 × 10 mg milled API tablet, fasted, read-out: Geometric Mean AUClast",279 ng·h/mL
same,AUC(0-inf),"[2]; human, plasma, oral, 10 mg, Food effect, completers, Treatment F (Reference): 1 × 10 mg milled API tablet, fasted, read-out: Geometric Mean AUC∞",280 ng·h/mL
same,Cmax,"[2]; human, plasma, oral, 10 mg, Food effect, completers, Treatment F (Reference): 1 × 10 mg milled API tablet, fasted, read-out: Geometric Mean Cmax",31.3 ng/mL
same,AUC(0-t),"[2]; human, plasma, oral, 10 mg, Food effect, completers, Treatment H (Test): 1 × 10 mg milled API tablet, high-fat diet, read-out: Geometric Mean AUClast",377 ng·h/mL
same,AUC(0-inf),"[2]; human, plasma, oral, 10 mg, Food effect, completers, Treatment H (Test): 1 × 10 mg milled API tablet, high-fat diet, read-out: Geometric Mean AUC∞",379 ng·h/mL
same,AUC(0-t),"[2]; human, plasma, oral, 10 mg, Relative BA, completers, Treatment F (Test): 1 × 10 mg Formulation Concept 2 (milled API tablet), fasting, read-out: Geometric Mean AUClast",274 ng·h/mL
same,AUC(0-inf),"[2]; human, plasma, oral, 10 mg, Relative BA, completers, Treatment F (Test): 1 × 10 mg Formulation Concept 2 (milled API tablet), fasting, read-out: Geometric Mean AUC∞",279 ng·h/mL
same,Cmax,"[2]; human, plasma, oral, 10 mg, Relative BA, completers, Treatment F (Test): 1 × 10 mg Formulation Concept 2 (milled API tablet), fasting, read-out: Geometric Mean Cmax",30.9 ng/mL
same,half-life,"[2]; human, plasma, oral, 10 mg, Treatment F: 1 × 10 mg Formulation Concept 2 (milled API tablet), fasting, mean (SD)",31 h
same,AUC(0-t),"[2]; human, plasma, oral, 10 mg, Treatment F: 1 × 10 mg Formulation Concept 2 (milled API tablet), fasting, mean (SD), read-out: AUClast",297 ng·h/mL
same,AUC(0-inf),"[2]; human, plasma, oral, 10 mg, Treatment F: 1 × 10 mg Formulation Concept 2 (milled API tablet), fasting, mean (SD), read-out: AUC∞",318 ng·h/mL
same,Tmax,"[2]; human, plasma, oral, 10 mg, Treatment F: 1 × 10 mg Formulation Concept 2 (milled API tablet), fasting, median (range)",1.5 h
same,half-life,"[2]; human, plasma, oral, 10 mg, Treatment H: 1 × 10 mg Formulation Concept 2 (milled API tablet), after high-fat breakfast, mean",30.8 h
same,AUC(0-t),"[2]; human, plasma, oral, 10 mg, Treatment H: 1 × 10 mg Formulation Concept 2 (milled API tablet), after high-fat breakfast, mean, read-out: AUClast",388 ng·h/mL
same,AUC(0-inf),"[2]; human, plasma, oral, 10 mg, Treatment H: 1 × 10 mg Formulation Concept 2 (milled API tablet), after high-fat breakfast, mean, read-out: AUC∞",388 ng·h/mL
same,Tmax,"[2]; human, plasma, oral, 10 mg, Treatment H: 1 × 10 mg Formulation Concept 2 (milled API tablet), after high-fat breakfast, median",2 h
same,AUC(0-t),"[2]; human, plasma, po, 10 mg, Relative BA, completers, Treatment E (Reference): 2 × 5 mg oral capsule, fasting, read-out: Geometric Mean AUClast",291 ng·h/mL
same,AUC(0-inf),"[2]; human, plasma, po, 10 mg, Relative BA, completers, Treatment E (Reference): 2 × 5 mg oral capsule, fasting, read-out: Geometric Mean AUC∞",297 ng·h/mL
same,Cmax,"[2]; human, plasma, po, 10 mg, Relative BA, completers, Treatment E (Reference): 2 × 5 mg oral capsule, fasting, read-out: Geometric Mean Cmax",30.2 ng/mL
same,half-life,"[2]; human, plasma, po, 10 mg, Treatment E: 2 × 5 mg oral capsule, fasting, mean",30.5 h
same,AUC(0-t),"[2]; human, plasma, po, 10 mg, Treatment E: 2 × 5 mg oral capsule, fasting, mean, read-out: AUClast",308 ng·h/mL
same,AUC(0-inf),"[2]; human, plasma, po, 10 mg, Treatment E: 2 × 5 mg oral capsule, fasting, mean, read-out: AUC∞",307 ng·h/mL
same,Cmax,"[2]; human, plasma, po, 10 mg, Treatment E: 2 × 5 mg oral capsule, fasting, mean, read-out: Cmax",31.7 ng/mL
same,Tmax,"[2]; human, plasma, po, 10 mg, Treatment E: 2 × 5 mg oral capsule, fasting, median",2 h
